Reference: patent publication US20130184272A1, “DIABETES THERAPEUTIC AGENT” (TAKEDA PHARMACEUTICAL COMPANY LIMITED, priority 2010, published 2013)

Tests used:
MyoD = assay: Muscle-related gene expression in myoblast: MyoD; type: cell-based, Mouse; details: for MyoD/36B4 expression level: 10 μM, 1 day, relative value
creatine kinase (CKM) = assay: Muscle-related gene expression in myoblast: creatine kinase (CKM); type: cell-based, Mouse; details: for CKM/36B4 expression level: 10 μM, 1 day, relative value
PPARγ = assay: Adipocyte-related gene expression level: PPARγ; type: cell-based
Description: (§1) In the same manner as in Example 10, the cells were cultured, and total RNA was extracted using Rneasy96 kit (Qiagen) from the cell immediately before and 6 days after addition of […] of the compound of Reference Example 1. cDNA was prepared from the total RNA using TaqMan reverse transcription reagent (Applied Biosystems), quantitative PCR was performed by ABI PRISM7000 or 7000 using TaqMan Universal PCR master mix (Applied Biosystems) and commercially available primers, and the expression level of each gene was determined. The commercially available primers used were as follows. • C/EBPα (Mm00514283_s1, TaqMan Gene Expression Assays, Applied Biosystems) • C/EBPβ (Mm00843434_s1, TaqMan Gene Expression Assays, Applied Biosystems) • KLF15 (Mm00517792_m1, TaqMan Gene Expression Assays, Applied Biosystems) • PPARγ (Mm00440945_m1, TaqMan Gene Expression Assays, Applied Biosystems)
(§2) The expression level was amended by the amount of 36B4 (Takeda Pharmaceutical Company Limited) in the same manner as in Example 3, and the relative values to the value immediately before addition of each gene compound as 1 are shown in Table 16. The data in Table 16 show mean±standard deviation at n=3-4 (n is the number of samples).

[1] = test system: Normal male C57BL/6J mice; assay: Data of normal mouse; type: in vivo
Description: Normal male C57BL/6J mice (CLEA Japan, Inc.) were bred allowing free ingestion of both feed and water. The mice were bred for acclimation for 1 week from 16-week-old. The body weight was measured, the mice were divided into 2 groups (5 per group) to be uniform, and the compound of Reference Example 1 (0.03 mg/kg) was orally administered to one group for 2 weeks. On the last day, the body weight, and plasma levels of total cholesterol, glucose, lactic acid, GOT, GPT and neutral lipid were measured. The data of Table 19 show mean±standard deviation at n=5 (n is the number of samples).

myogenin = assay: Muscle-related gene expression in myoblast: myogenin; type: cell-based, Mouse; details: for Myogenin/36B4 expression level: 10 μM, 1 day, relative value
C/EBPα = assay: Adipocyte-related gene expression level: C/EBPα; type: cell-based
Description: as §1, §2

[2] = test system: Male FisherF344 rats fed with a high-fat diet; assay: Antiobesity action and dyslipidemia improving effect in high-fat diet-loaded rat; type: in vivo
Description: Male FisherF344 rats (CLEA Japan, Inc.) fed with a high-fat diet (45 kcal % fat, D12451, research diet) for 38 weeks from 5 weeks of age were used. They were bred with a powder high-fat diet (D12451M) for 4 weeks for acclimation, measured for body weight, body composition, amount of ingestion and plasma component, and divided into 3 groups (6 per group) without difference between them. The plasma components (total cholesterol, triglyceride, glucose concentration) were measured by HITACHI automatic analyzer 7070. As the body composition, total fat mass, body fat percentage, lean body mass of lower leg, and visceral fat mass were measured by X-ray CT apparatus (LCT-100A, LaTheta). The compound of Reference Example 1 was suspended in aqueous methylcellulose solution and orally administered repeatedly to 2 groups of the rats divided into 3 groups at 0.03 mg/kg or 0.1 mg/kg once a day for 14 days. A 0.5% aqueous methylcellulose solution was orally administered similarly to the remaining one group and used as a control group. On the administration completion day, the blood was drawn again from the tail vein, and plasma levels of total cholesterol, triglyceride, glucose, insulin and leptin, and body weight and body composition (total fat mass, body fat percentage, lean body mass of lower leg, visceral fat mass) were measured. The amount of ingestion was calculated from the amount of the feed given and the amount left, and the total of the test period was calculated. The numerical values in Table 11 and Table 12 show mean±standard deviation at n=5-6 (n is the number of rats).

KLF15 = assay: Adipocyte-related gene expression level: KLF15; type: cell-based
Description: as §1, §2

[3] = C2C12 cells cultured in a differentiation medium
[4] = 10 μm [sic] of compound, 6 days after addition, value immediately before addition = 1
[5] = normal mice, 0.03 mg/kg oral, 2 weeks
[6] = 0.03 mg/kg oral once a day, 14 days
[7] = 0.1 mg/kg oral once a day, 14 days

Cc1ncccc1Oc1sc(C(N)=O)c2c1-c1c(cnn1C)CC2 [Ref. Ex. 1, 1-methyl-8-[(2-methylpyridin-3-yl)oxy]-4,5-dihydro-1H-thieno[3,4-g]indazole-6-carboxamide]
expression of MyoD (in words) (MyoD; [3]): increased | MyoD/36B4 expression level (MyoD; DM (differentiation medium)): 1.59 ± 0.20 | MyoD/36B4 expression level (MyoD; GM (growth medium)): 1.26 ± 0.10 | expression of creatine kinase (in words) (creatine kinase (CKM); [3]): promoted | CKM/36B4 expression level (creatine kinase (CKM); DM (differentiation medium)): 4.84 ± 1.08 | CKM/36B4 expression level (creatine kinase (CKM); GM (growth medium)): 0.03 ± 0.01 | PPARγ expression level (amended by 36B4) (PPARγ; [4]): 4.5 ± 0.9 | expression level of PPARγ (in words) (PPARγ; C3H10T1/2 cell): decreased | normal body weight and plasma markers (in words) ([1]; normal C57BL/6J mice): does not affect | body weight (g) on last day [1, 5]: 28.03 ± 0.84 g | plasma GOT (U/L) [1, 5]: 63.4 ± 31.1 U/L | plasma GPT (U/L) [1, 5]: 29.4 ± 3.9 U/L | plasma glucose [1, 5]: 155.5 ± 11.9 mg/dL | plasma lactic acid [1, 5]: 49.3 ± 16.5 mg/dL | plasma neutral fats [1, 5]: 78.0 ± 31.0 mg/dL | plasma total cholesterol [1, 5]: 81.1 ± 10.2 mg/dL | total amount of ingestion (g/2 weeks) [1, 5]: 55.6 ± 2.5 g/2 weeks | expression of myogenin (in words) (myogenin; [3]): promoted | Myogenin/36B4 expression level (myogenin; DM (differentiation medium)): 3.81 ± 0.55 | Myogenin/36B4 expression level (myogenin; GM (growth medium)): 0.03 ± 0.00 | C/EBPα expression level (amended by 36B4) (C/EBPα; [4]): 1.6 ± 0.5 | expression level of C/EBPα (in words) (C/EBPα; C3H10T1/2 cell): decreased | amount of ingestion (g/2 weeks) [2, 6]: 165.8 ± 13.9 g/2 weeks | body fat percentage, change rate (%) [2, 6]: 3.5 ± 1.5 % | body weight [2, 6]: 460.8 ± 15.3 g | body weight, amount of change [2, 6]: -3.8 ± 7.5 g | lean body mass (g) of lower leg [2, 6]: 82.9 ± 5.2 g | lean body mass of lower leg, amount of change [2, 6]: 8.4 ± 1.7 g | plasma glucose [2, 6]: 142.3 ± 5.6 mg/dL | plasma insulin [2, 6]: 5.2 ± 1.0 ng/mL | plasma leptin [2, 6]: 1.2 ± 0.4 ng/dL | plasma total cholesterol [2, 6]: 102.3 ± 12.6 mg/dL | plasma triglyceride [2, 6]: 242.4 ± 92.5 mg/dL | total fat mass [2, 6]: 138.0 ± 16.6 g | total fat mass, amount of change [2, 6]: -17.5 ± 8.8 g | visceral fat mass [2, 6]: 53.8 ± 6.1 g | visceral fat mass, amount of change [2, 6]: -4.3 ± 3.4 g | amount of ingestion (g/2 weeks) [2, 7]: 127.9 ± 21.2 g/2 weeks | body fat percentage (%) [2, 7]: 26.9 ± 2.6 % | body fat percentage, change rate (%) [2, 7]: −7.1 ± 1.1 % | body weight [2, 7]: 446.5 ± 38.1 g | body weight, amount of change [2, 7]: -19.5 ± 11.0 g | lean body mass (g) of lower leg [2, 7]: 84.5 ± 6.9 g | lean body mass of lower leg, amount of change [2, 7]: 9.8 ± 4.2 g | plasma glucose [2, 7]: 146.3 ± 5.9 mg/dL | plasma insulin [2, 7]: 2.8 ± 1.1 ng/mL | plasma leptin [2, 7]: 0.6 ± 0.4 ng/dL | plasma total cholesterol [2, 7]: 77.3 ± 9.6 mg/dL | plasma triglyceride [2, 7]: 100.1 ± 43.1 mg/dL | total fat mass [2, 7]: 120.5 ± 18.2 g | total fat mass, amount of change [2, 7]: -38.1 ± 6.7 g | visceral fat mass [2, 7]: 47.2 ± 9.0 g | visceral fat mass, amount of change [2, 7]: -11.0 ± 2.9 g | body weight (in words) ([2]; administration at 0.1 mg/kg): clear body weight decreasing action | KLF15 expression level (amended by 36B4) (KLF15; [4]): 1.4 ± 0.4 | expression level of KLF15 (in words) (KLF15; C3H10T1/2 cell): decreased
